According to publication PMC4278837, “A Cyclic Peptidic Serine Protease Inhibitor: Increasing Affinity by Increasing Peptide Flexibility” (PLoS ONE, 2014):
Like-named read-outs stand apart in the source and are kept apart here. Bridge positions count the residues as written; N and C are the ends. Square brackets hold non-standard residues; d marks the D form. Peptide text beside a SMILES is read from it. Ala(1-amidino-4-piperidyl) = N=C(N)N1CCC(C[C@H](N)C(=O)O)CC1

Legend:
huPA-H99Y R35A = molecular target: T1, huPA-H99Y R35A (Homo sapiens, UniProt P00749, H272Y/R198A); assay: Ki for inhibition of huPA-H99Y-R35A, chromogenic substrate; assay type: biochemical
T1 construct: To ensure that the uPAs purified from the conditioned media were completely in the two-chain form, they were treated with plasmin; hexa-His (C); made in house; host or cells: HEK293 6E suspension cells
Excerpt: (§1) Determination of Ki values
(§2) The initial reaction velocities were monitored at an absorbance of 405 nm. The inhibition constants (K i) were subsequently determined from the non-linear regression analyses of plots for V i/V o versus [I]0, using Equation 2, derived under assumption of competitive inhibition:
(§3) [drawing 2] (2) where V i and V 0 are the reaction velocities in the presence and absence of inhibitor, respectively; [S]0 and [I]0 are the substrate and inhibitor concentrations, respectively; K M is K M for substrate hydrolysis by each protease. In Equation 2, it is assumed that [S]free ≈ [S]0 and [I]free ≈ [I]0.

huPA-H99Y V41A = molecular target: T2, huPA-H99Y V41A (Homo sapiens, UniProt P00749, H272Y/V208A); assay: Ki for inhibition of huPA-H99Y-V41A, chromogenic substrate; assay type: biochemical
T2 construct: To ensure that the uPAs purified from the conditioned media were completely in the two-chain form, they were treated with plasmin; hexa-His (C); made in house; host or cells: HEK293 6E suspension cells
Excerpt: as §1, §2, §3

huPA-H99Y K143A = molecular target: T3, huPA-H99Y K143A (Homo sapiens, UniProt P00749, H272Y/K320A); assay: Ki for inhibition of huPA-H99Y-K143A, chromogenic substrate; assay type: biochemical
T3 construct: To ensure that the uPAs purified from the conditioned media were completely in the two-chain form, they were treated with plasmin; hexa-His (C); made in house; host or cells: HEK293 6E suspension cells
Excerpt: as §1, §2, §3

muPA K41A = molecular target: T4, muPA K41A (Mus musculus, UniProt P06869, K210A); assay: Ki for inhibition of muPA-K41A, chromogenic substrate; assay type: biochemical, murine
T4 construct: To ensure that the uPAs purified from the conditioned media were completely in the two-chain form, they were treated with plasmin; hexa-His (C); made in house; host or cells: HEK293 6E suspension cells
T4 sequence (P06869 180-433 K210A): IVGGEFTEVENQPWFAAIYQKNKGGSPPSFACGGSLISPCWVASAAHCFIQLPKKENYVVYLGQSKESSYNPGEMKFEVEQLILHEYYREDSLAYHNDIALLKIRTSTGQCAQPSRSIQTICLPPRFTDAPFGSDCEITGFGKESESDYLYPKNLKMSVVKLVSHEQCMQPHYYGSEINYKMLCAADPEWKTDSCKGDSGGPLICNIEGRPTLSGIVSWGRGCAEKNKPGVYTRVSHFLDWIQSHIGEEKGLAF
T4 sequence (P06869 21-178 partner limits assumed): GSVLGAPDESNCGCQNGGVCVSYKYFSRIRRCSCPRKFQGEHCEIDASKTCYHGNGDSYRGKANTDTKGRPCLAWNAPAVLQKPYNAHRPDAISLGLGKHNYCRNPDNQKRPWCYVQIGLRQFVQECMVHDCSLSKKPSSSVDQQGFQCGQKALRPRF
Excerpt: as §1, §2, §3

muPA Y99A = molecular target: T5, muPA Y99A (Mus musculus, UniProt P06869, Y274A); assay: Ki for inhibition of muPA-Y99A, chromogenic substrate; assay type: biochemical, murine
T5 construct: To ensure that the uPAs purified from the conditioned media were completely in the two-chain form, they were treated with plasmin; hexa-His (C); made in house; host or cells: HEK293 6E suspension cells
T5 sequence (P06869 180-433 Y274A): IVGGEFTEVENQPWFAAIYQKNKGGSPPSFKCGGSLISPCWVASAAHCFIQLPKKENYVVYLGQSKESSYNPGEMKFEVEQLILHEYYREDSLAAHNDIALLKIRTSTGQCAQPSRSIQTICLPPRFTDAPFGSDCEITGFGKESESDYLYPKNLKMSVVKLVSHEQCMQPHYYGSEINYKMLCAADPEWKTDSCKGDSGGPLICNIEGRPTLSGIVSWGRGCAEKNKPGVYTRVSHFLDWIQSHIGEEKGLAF
T5 sequence (P06869 21-178 partner limits assumed): as the sequence (P06869 21-178 partner limits assumed) above
Excerpt: as §1, §2, §3

muPA K143A = molecular target: T6, muPA K143A (Mus musculus, UniProt P06869, K322A); assay: Ki for inhibition of muPA-K143A, chromogenic substrate; assay type: biochemical, murine; settings: means ± S.D.; read-out: K i for inhibition of muPA-K143A
T6 construct: To ensure that the uPAs purified from the conditioned media were completely in the two-chain form, they were treated with plasmin; hexa-His (C); made in house; host or cells: HEK293 6E suspension cells
T6 sequence (P06869 180-433 K322A): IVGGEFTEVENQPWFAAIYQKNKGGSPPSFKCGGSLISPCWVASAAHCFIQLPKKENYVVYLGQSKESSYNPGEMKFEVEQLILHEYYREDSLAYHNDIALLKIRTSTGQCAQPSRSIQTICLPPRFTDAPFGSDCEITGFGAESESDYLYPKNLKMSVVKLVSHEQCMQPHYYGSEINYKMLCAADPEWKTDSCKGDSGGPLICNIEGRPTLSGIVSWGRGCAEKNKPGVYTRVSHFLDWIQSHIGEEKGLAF
T6 sequence (P06869 21-178 partner limits assumed): as the sequence (P06869 21-178 partner limits assumed) above
Excerpt: as §1, §2, §3

muPA S190A = molecular target: T7, muPA S190A (Mus musculus, UniProt P06869, S373A); assay: Ki for inhibition of muPA-S190A, chromogenic substrate; assay type: biochemical, murine
T7 construct: To ensure that the uPAs purified from the conditioned media were completely in the two-chain form, they were treated with plasmin; hexa-His (C); made in house; host or cells: HEK293 6E suspension cells
T7 sequence (P06869 180-433 S373A): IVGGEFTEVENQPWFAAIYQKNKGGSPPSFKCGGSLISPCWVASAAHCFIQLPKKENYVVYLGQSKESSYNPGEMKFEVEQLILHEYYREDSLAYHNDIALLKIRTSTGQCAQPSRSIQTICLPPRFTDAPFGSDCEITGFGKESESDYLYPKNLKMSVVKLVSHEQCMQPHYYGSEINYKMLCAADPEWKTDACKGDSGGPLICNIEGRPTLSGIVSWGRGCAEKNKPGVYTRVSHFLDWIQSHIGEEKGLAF
T7 sequence (P06869 21-178 partner limits assumed): as the sequence (P06869 21-178 partner limits assumed) above
Excerpt: as §1, §2, §3

muPA V213T = molecular target: T8, muPA V213T (Mus musculus, UniProt P06869, V396T); assay: Ki for inhibition of muPA-V213T, chromogenic substrate; assay type: biochemical, murine
T8 construct: To ensure that the uPAs purified from the conditioned media were completely in the two-chain form, they were treated with plasmin; hexa-His (C); made in house; host or cells: HEK293 6E suspension cells
T8 sequence (P06869 180-433 V396T): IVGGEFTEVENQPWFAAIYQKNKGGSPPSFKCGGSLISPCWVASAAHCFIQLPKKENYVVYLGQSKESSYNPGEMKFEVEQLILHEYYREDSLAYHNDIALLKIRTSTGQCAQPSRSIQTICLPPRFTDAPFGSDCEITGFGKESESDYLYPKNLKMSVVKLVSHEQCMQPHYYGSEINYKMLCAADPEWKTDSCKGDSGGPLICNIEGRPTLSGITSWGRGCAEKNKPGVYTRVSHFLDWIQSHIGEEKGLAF
T8 sequence (P06869 21-178 partner limits assumed): as the sequence (P06869 21-178 partner limits assumed) above
Excerpt: as §1, §2, §3

huPA-H99Y [1] = molecular target: T9, huPA-H99Y (Homo sapiens, UniProt P00749, H272Y); assay: Surface plasmon resonance analysis of peptide binding to huPA-H99Y; settings: SPR; for koff: read-out: koff of fitted curve, representative sensorgram; for kon: read-out: kon of fitted curve, representative sensorgram
T9 construct: To ensure that the uPAs purified from the conditioned media were completely in the two-chain form, they were treated with plasmin; hexa-His (C); made in house; host or cells: HEK293 6E suspension cells
Protocol: (§4) Surface plasmon resonance (SPR) analysis
(§5) To determine the equilibrium binding constants (KD), the association rate constants (kon) and dissociation rate constants (koff) for peptide binding to uPA, surface plasmon resonance analysis was performed on a Biacore T200 instrument (Biacore, Uppsala, Sweden). A CM5 chip was coupled with the uPA variant (muPA or huPAH99Y) to be analysed, by injecting a concentration of 30 µg/mL uPA in immobilization buffer (10 mM sodium acetate, pH 5.0), aiming for an immobilised level of approximately 500 response units (RU). Immobilisation was followed by surface blocking with ethanolamine. A reference cell was prepared in the same way, without coupling of uPA. Mupain-1 variants in HBS with 0.1% BSA, in a dilution series, were injected at a flow rate of 30 µL per min during 60 s at 25°C. Subsequently, the dissociation was monitored during 600 s. Kinetic constants (k on and k off) were calculated with the Biacore Evaluation Software, using the 1∶1 kinetic fit. The K D values were calculated as k off /k on.

muPA = molecular target: T10, muPA (Mus musculus, UniProt P06869); assay: Surface plasmon resonance analysis of peptide binding to muPA; design: species or system murine; settings: SPR, 25°C, pH 7.4
T10 construct: To ensure that the uPAs purified from the conditioned media were completely in the two-chain form, they were treated with plasmin; hexa-His (C); made in house; host or cells: HEK293 6E suspension cells
T10 sequence (P06869 180-433 limits assumed): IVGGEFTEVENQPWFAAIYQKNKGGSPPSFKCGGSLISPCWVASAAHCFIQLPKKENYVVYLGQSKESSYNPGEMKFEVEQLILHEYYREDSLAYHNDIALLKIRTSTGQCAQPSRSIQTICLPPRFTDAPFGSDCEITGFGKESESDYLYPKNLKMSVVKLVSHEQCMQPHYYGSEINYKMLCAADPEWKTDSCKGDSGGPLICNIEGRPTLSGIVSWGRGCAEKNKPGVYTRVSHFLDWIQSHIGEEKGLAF
T10 sequence (P06869 21-178 partner limits assumed): as the sequence (P06869 21-178 partner limits assumed) above
Protocol: as §4, §5

huPA-H99Y [2] = molecular target: T9, huPA-H99Y; settings: 37°C; means ± S.D.; starred values reproduced from previous publications; ref Andersen et al., 2008; Hosseini et al., 2011; read-out: K i for inhibition of huPA-H99Y; cited from earlier work
muPA wt = molecular target: T11, muPA wt (Mus musculus, UniProt P06869); settings: cited from earlier work
T11 construct: To ensure that the uPAs purified from the conditioned media were completely in the two-chain form, they were treated with plasmin; hexa-His (C); made in house; host or cells: HEK293 6E suspension cells
T11 sequence (P06869 180-433 limits assumed): as the sequence (P06869 180-433 limits assumed) above
T11 sequence (P06869 21-178 partner limits assumed): as the sequence (P06869 21-178 partner limits assumed) above

huPA-H99Y Q192A = huPA-H99Y Q192A (Homo sapiens, UniProt P00749, H272Y/Q373A); assay: Ki for inhibition of huPA-H99Y-Q192A, chromogenic substrate; assay type: biochemical; design: To ensure that the uPAs purified from the conditioned media were completely in the two-chain form, they were treated with plasmin; hexa-His (C); made in house; host or cells: HEK293 6E suspension cells
Excerpt: as §1, §2, §3

huPA-H99Y [3] = molecular target: T12, huPA-H99Y (Homo sapiens, UniProt P00749, C299A/H272Y/N322Q); assay: Isothermal titration calorimetry for binding to huPA-H99Y catalytic domain; settings: ITC, 25°C, pH 7.4
T12 construct: recombinant uPA catalytic domain (residues 159–411), harbouring a H99Y mutation; made in house; host or cells: Pichia pastoris X-33 (secreted)
Protocol: For these experiments, we used the catalytic domain of huPA-H99Y expressed in and purified from Pichia pastoris strain X-33 (see above). The protein was dissolved in and dialysed against a buffer of 20 mM sodium phosphate, pH 7.4, 140 mM NaCl. The protein concentration was determined by absorbance at 280 nm, using an extinction coefficient of 43810 M^−1cm^−1. The peptides were dissolved in the above-mentioned buffer. All isothermal titration calorimetry experiments were performed with a MicroCal^TM ITC200 instrument equilibrated to a temperature of 25°C (298oK). The concentration of uPA-H99Y catalytic domain used in the 200 µl sample cell was 5–50 µM, depending on the affinity of the ligand. Titrations were performed by injecting 2 µl of the ligand until the total syringe volume of 40 µl was spent. Titration of ligand into buffer was performed to obtain buffer correction. The equilibrium association constant KA and the reaction enthalpy ΔH were calculated by fitting the integrated titration peaks using a one-binding-site model in the ITC ORIGIN7 programme package. The following formulas for Gibbs free energy ΔG were used to analyse the measured energies
[drawing 4] (4) where R is the gas constant and T the absolute temperature. ΔS, the entropic change during the reaction, was calculated using equations 3 and 4 and the measured K A and ΔH values.

[4] = huPA-H99Y immobilized on CM5 chip, single example (S3 Fig)

CC(=O)N[C@H]1CSSC[C@@H](C(N)=O)NC(=O)[C@H](CC(=O)O)NC(=O)[C@H](CC(C)C)NC(=O)[C@H](Cc2ccc(O)cc2)NC(=O)[C@H](CC2CCN(C(=N)N)CC2)NC(=O)[C@H](CO)NC(=O)[C@H](Cc2ccc(O)cc2)NC(=O)[C@H](C)NC(=O)[C@@H]2CCCN2C1=O [Mupain-1-16, CPAYS[L-3-(N-amidino-4-piperidyl)alanine]YLDC] (Ac-CPAYS[Ala(1-amidino-4-piperidyl)]YLDC-NH2; disulfide 1-10)
Ki (huPA-H99Y R35A; 37°C, means ± S.D., read-out: K i for inhibition of huPA-H99Y-R35A): 2500 ± 290 nM
Ki (huPA-H99Y V41A; 37°C, means ± S.D., read-out: K i for inhibition of huPA-H99Y-V41A): 1950 ± 300 nM
Ki (huPA-H99Y K143A; 37°C, means ± S.D., read-out: K i for inhibition of huPA-H99Y-K143A): 1130 ± 320 nM
Ki (muPA K41A; means ± S.D., read-out: K i for inhibition of muPA-K41A): 300 ± 50 nM
Ki (muPA Y99A; means ± S.D., read-out: K i for inhibition of muPA-Y99A): 1240 ± 440 nM
Ki (muPA K143A): 130 ± 20 nM
Ki (muPA S190A; means ± S.D., read-out: K i for inhibition of muPA-S190A): 352 ± 40 nM
Ki (muPA V213T; means ± S.D., read-out: K i for inhibition of muPA-V213T): 13 ± 3 nM
k off, huPA-H99Y (huPA-H99Y [1]; 25°C, pH 7.4): 8.93±0.46 (4) s^-1, ×10^2
k on, huPA-H99Y (huPA-H99Y [1]; 25°C, pH 7.4): 1.07±0.15 (4) M^-1s^-1, ×10^-5
Kd (huPA-H99Y [1]; 25°C, pH 7.4, calculated as k off/k on, read-out: K D, huPA-H99Y): 844 ± 132 nM
Kd (huPA-H99Y [1]; huPA-H99Y immobilized on CM5 chip, single example (S3 Fig), read-out: KD of fitted curve, representative sensorgram): 920 nM
koff (huPA-H99Y [1]; [4]): 0.0929 s⁻¹
kon (huPA-H99Y [1]; [4]): 101000 M⁻¹ s⁻¹
k off, muPA (muPA): 0.671±0.119 (3) s^−1, ×10^2
k on, muPA (muPA): 0.898±0.545 (3) M^−1s^−1, ×10^−5
Ki (huPA-H99Y [2]): 2480 ± 70 nM
Ki (muPA wt; means ± S.D., starred values reproduced from previous publications, ref Andersen et al., 2008, Hosseini et al., 2011, read-out: K i for inhibition of muPA wt): 45 ± 10 nM
Ki (huPA-H99Y Q192A; 37°C, means ± S.D., read-out: K i for inhibition of huPA-H99Y-Q192A): 2710 ± 280 nM

CC(=O)N[C@H]1CSSC[C@@H](C(N)=O)NC(=O)[C@H](CC(=O)O)NC(=O)[C@H](CC(C)C)NC(=O)[C@H](Cc2ccc(O)cc2)NC(=O)[C@H](CCCNC(=N)N)NC(=O)[C@H](CO)NC(=O)[C@H](Cc2ccc(O)cc2)NC(=O)[C@H](C)NC(=O)[C@@H]2CCCN2C1=O [Mupain-1, CPAYSRYLDC] (Ac-CPAYSRYLDC-NH2; disulfide 1-10)
Ki (huPA-H99Y R35A): 39500 ± 2900 nM
Ki (huPA-H99Y V41A): 32400 ± 5300 nM
Ki (huPA-H99Y K143A): 56600 ± 8000 nM
Ki (muPA K41A): 4290 ± 150 nM
Ki (muPA Y99A): 26000 ± 5800 nM
Ki (muPA K143A): 4880 ± 350 nM
Ki (muPA S190A): 1600 ± 530 nM
Ki (muPA V213T): 246 ± 44 nM
Kd (huPA-H99Y [1]; K D, huPA-H99Y, 25°C, pH 7.4, calculated as k off/k on): 14100 ± 2400 nM
Kd (huPA-H99Y [1]; KD of fitted curve, representative sensorgram, huPA-H99Y immobilized on CM5 chip, single example (S3 Fig)): 15800 nM
k off, huPA-H99Y (huPA-H99Y [1]; 25°C, pH 7.4): 80.2±7.6 (4) s^-1, ×10^2
k on, huPA-H99Y (huPA-H99Y [1]; 25°C, pH 7.4): 0.569±0.103 (4) M^-1s^-1, ×10^-5
koff (huPA-H99Y [1]; [4]): 0.803 s⁻¹
kon (huPA-H99Y [1]; [4]): 50900 M⁻¹ s⁻¹
k off, muPA (muPA): 3.64±1.03 (6) s^−1, ×10^2
k on, muPA (muPA): 0.914±0.250 (6) M^−1s^−1, ×10^−5
Kd (huPA-H99Y [3]): 5040 ± 1610 nM
Ki (huPA-H99Y [2]): 15300 ± 2000 nM
Ki (muPA wt; introduction, read-out: K i value for inhibition of muPA): ~500 nM
Ki (huPA-H99Y Q192A): 33200 ± 4200 nM
